Test results taken from ChEMBL document CHEMBL1147493, “Small molecule biaryl FSH receptor agonists. Part 2: Lead optimization via parallel synthesis” (Bioorg Med Chem Lett, 2004).
Values joined by “and” are separate entries in the source; they are usually repeats but may differ in a detail not shown here. Identical values can stand only once.

Assays:
Assay type in all cases: functional
[1] = molecular target: T1, Follicle-stimulating hormone receptor (Homo sapiens, UniProt P23945); assay: Agonistic activity against human follicle stimulating hormone receptor in CHO-hFSHR-luciferase assay.
T1 sequence (P23945 whole entry): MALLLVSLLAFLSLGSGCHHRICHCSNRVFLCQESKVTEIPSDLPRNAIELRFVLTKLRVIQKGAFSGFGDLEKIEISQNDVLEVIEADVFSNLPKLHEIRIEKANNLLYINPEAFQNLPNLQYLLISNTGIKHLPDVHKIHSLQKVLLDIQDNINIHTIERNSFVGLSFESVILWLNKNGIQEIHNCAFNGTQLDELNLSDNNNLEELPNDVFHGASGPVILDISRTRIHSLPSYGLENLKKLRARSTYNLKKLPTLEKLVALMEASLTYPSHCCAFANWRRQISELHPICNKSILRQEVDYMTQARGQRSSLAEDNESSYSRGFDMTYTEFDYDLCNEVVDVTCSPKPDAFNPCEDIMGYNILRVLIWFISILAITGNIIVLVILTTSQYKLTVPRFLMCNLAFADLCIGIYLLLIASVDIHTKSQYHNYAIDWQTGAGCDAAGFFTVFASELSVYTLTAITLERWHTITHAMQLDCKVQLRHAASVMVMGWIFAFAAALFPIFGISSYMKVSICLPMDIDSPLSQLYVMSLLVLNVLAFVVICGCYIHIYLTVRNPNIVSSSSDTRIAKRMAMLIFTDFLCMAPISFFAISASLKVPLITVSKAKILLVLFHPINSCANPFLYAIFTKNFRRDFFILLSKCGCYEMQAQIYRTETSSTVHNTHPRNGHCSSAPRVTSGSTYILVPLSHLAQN

[2] = molecular target: T1, Follicle-stimulating hormone receptor; assay: Agonistic activity in CHO-hFollicle stimulating hormone receptor cell-based cAMP accumulation assay
[3] = molecular target: T2, Follicle-stimulating hormone receptor (Homo sapiens) (UniProt P23945); assay: Agonistic efficacy in CHO-hFSHR cell-based cAMP accumulation assay relative to FSH(=100%)
T2 sequence (whole entry): T1 sequence (P23945 whole entry)

[4] = molecular target: T1, Follicle-stimulating hormone receptor; assay: Agonistic activity in CHO-hFSHR cell-based cAMP accumulation assay

| SMILES | EC50 [1] | EC50 [2] | Efficacy [3] | EC50 [4] |
| --- | --- | --- | --- | --- |
| CCCCCCCCN1C(=O)[C@@H](Cc2ccc(-c3cc(OC)c(OC)c(OC)c3)cc2)N(C)C(=O)[C@@H]1C | 68 nM |  |  |  |
| CCCCCCCCN1CC(=O)N(C)[C@@H](Cc2ccc(-c3cc(OC)c(OC)c(OC)c3)cc2)C1=O | 400 nM |  |  |  |
| CCCCCCCN1C(=O)[C@H](Cc2ccc(-c3cc(OC)c(OC)c(OC)c3)cc2)N(C)C(=O)[C@@H]1C | 25 nM | 32 nM | 54% |  |
| CCCCCCCCN1C(=O)[C@H](Cc2ccc(-c3cccc(CN(COC)C(=O)OC)c3)cc2)N(C)C(=O)[C@@H]1C | 1.8 nM |  |  |  |
| CCCCCCN1C(=O)[C@H](Cc2ccc(-c3cccc(CN(CCCC)C(=O)OC)c3)cc2)N(C)C(=O)[C@@H]1C | 8.9 nM |  |  | 48 nM and 59 nM |
| CCCCCCCCCN1CC(=O)N(C)[C@@H](Cc2ccc(-c3cc(OC)c(OC)c(OC)c3)cc2)C1=O | 900 nM |  |  |  |
| CCCCCCCCN1C(=O)[C@H](Cc2ccc(-c3cccc(CN(CCCC)C(=O)OC)c3)cc2)N(C)C(=O)[C@@H]1C | 2.7 nM |  | 49% | 31 nM |
| CCCCCCCCN1CC(=O)N(C)[C@@H](Cc2ccc(-c3ccc(OC)c(OC)c3)cc2)C1=O | 3300 nM |  |  |  |
| CCCCCN1CC(=O)N(C)[C@@H](Cc2ccc(-c3cc(OC)c(OC)c(OC)c3)cc2)C1=O | 9000 nM |  |  |  |
| CCCCCCCCN1C(=O)[C@H](Cc2ccc(-c3cc(OC)c(OC)c(OC)c3)cc2)N(C)C(=O)[C@H]1C | 120 nM |  |  |  |
| CCCCCCCCN1C(=O)[C@H](Cc2ccc(-c3cc(OC)c(OC)c(OC)c3)cc2)N(C)C(=O)[C@@H]1C | 13 nM |  | 47% | 32 nM |
| CCCCCCCCN1C(=O)[C@H](Cc2ccc(-c3cccc(CN(CCCC)C(C)=O)c3)cc2)N(C)C(=O)[C@@H]1C | 14 nM |  | 57% | 35 nM |
| CCCCCCNC(=O)CN1CC(=O)N(C)[C@@H](Cc2ccc(-c3cc(OC)c(OC)c(OC)c3)cc2)C1=O | 3 nM |  |  |  |
| CCCCCCNC(=O)CN1CC(=O)N(CCC)[C@@H](Cc2ccc(-c3cc(OC)c(OC)c(OC)c3)cc2)C1=O | > 20000 nM |  |  |  |
| CCCCCCNC(=O)CN1CC(=O)N[C@@H](Cc2ccc(-c3cc(OC)c(OC)c(OC)c3)cc2)C1=O | > 20000 nM |  |  |  |
| CCCCCCCCN1CC(=O)N(C)[C@@H](Cc2ccc(-c3cc(C)c(OC)c(C)c3)cc2)C1=O | 1200 nM |  |  |  |
| CCCCCCN1C(=O)[C@H](Cc2ccc(-c3cccc(CN(CCCC)C(C)=O)c3)cc2)N(C)C(=O)[C@@H]1C | 150 nM |  |  |  |
| CCCCCCCN1CC(=O)N(C)[C@@H](Cc2ccc(-c3cc(OC)c(OC)c(OC)c3)cc2)C1=O | 2300 nM |  |  |  |
| CCCCCCCCN1C(=O)[C@@H](Cc2ccc(-c3cc(OC)c(OC)c(OC)c3)cc2)N(C)C(=O)[C@H]1C | 1600 nM |  |  |  |
| CCCCCCN1CC(=O)N(C)[C@H](Cc2ccc(-c3cc(OC)c(OC)c(OC)c3)cc2)C1=O | > 50000 nM |  |  |  |
| CCCCCCN1CC(=O)N(C)[C@@H](Cc2ccc(-c3cc(OC)c(OC)c(OC)c3)cc2)C1=O | 3000 nM |  |  |  |
| CCCCCCCCN1CC(=O)N(C)[C@@H](Cc2ccc(-c3cc(OC)cc(OC)c3)cc2)C1=O | 5000 nM |  |  |  |
| CCCCCCN1C(=O)[C@H](Cc2ccc(-c3cccc(CN(CCCC)C(=O)NC)c3)cc2)N(C)C(=O)[C@@H]1C | 7.2 nM |  | 85% | 9.5 nM |
| CCCCCCN1C(=O)[C@H](Cc2ccc(-c3cc(OC)c(OC)c(OC)c3)cc2)N(C)C(=O)[C@@H]1C | 100 nM |  |  |  |
| CCCCCCCCN1C(=O)[C@H](Cc2ccc(-c3cccc(CN(CCCC)C(=O)NC)c3)cc2)N(C)C(=O)[C@@H]1C | 1.2 nM |  | 72% | 7.9 nM |
| CCCCCCCCN1C(=O)[C@H](Cc2ccc(-c3cccc(CN(COC)C(=O)NC)c3)cc2)N(C)C(=O)[C@@H]1C | 3.6 nM |  |  |  |
| CCCCCCNC(=O)CN1CC(=O)N(CC)[C@@H](Cc2ccc(-c3cc(OC)c(OC)c(OC)c3)cc2)C1=O | > 20000 nM |  |  |  |
| CCCCCNC(=O)CN1CC(=O)N(C)[C@@H](Cc2ccc(-c3cccc(CN(CCCC)C(=O)NC)c3)cc2)C1=O | 1.7 nM |  |  |  |
| CCCCCCCCN1C(=O)[C@H](Cc2ccc(-c3cccc(CN(COC)C(C)=O)c3)cc2)N(C)C(=O)[C@@H]1C | 9.7 nM |  |  |  |
